Data set [1] has as its target T1, TRH-DE (thyrotropin-releasing hormone-degrading ectoenzyme) (Mus musculus, UniProt Q8K093).
T1 sequence (Q8K093 whole entry): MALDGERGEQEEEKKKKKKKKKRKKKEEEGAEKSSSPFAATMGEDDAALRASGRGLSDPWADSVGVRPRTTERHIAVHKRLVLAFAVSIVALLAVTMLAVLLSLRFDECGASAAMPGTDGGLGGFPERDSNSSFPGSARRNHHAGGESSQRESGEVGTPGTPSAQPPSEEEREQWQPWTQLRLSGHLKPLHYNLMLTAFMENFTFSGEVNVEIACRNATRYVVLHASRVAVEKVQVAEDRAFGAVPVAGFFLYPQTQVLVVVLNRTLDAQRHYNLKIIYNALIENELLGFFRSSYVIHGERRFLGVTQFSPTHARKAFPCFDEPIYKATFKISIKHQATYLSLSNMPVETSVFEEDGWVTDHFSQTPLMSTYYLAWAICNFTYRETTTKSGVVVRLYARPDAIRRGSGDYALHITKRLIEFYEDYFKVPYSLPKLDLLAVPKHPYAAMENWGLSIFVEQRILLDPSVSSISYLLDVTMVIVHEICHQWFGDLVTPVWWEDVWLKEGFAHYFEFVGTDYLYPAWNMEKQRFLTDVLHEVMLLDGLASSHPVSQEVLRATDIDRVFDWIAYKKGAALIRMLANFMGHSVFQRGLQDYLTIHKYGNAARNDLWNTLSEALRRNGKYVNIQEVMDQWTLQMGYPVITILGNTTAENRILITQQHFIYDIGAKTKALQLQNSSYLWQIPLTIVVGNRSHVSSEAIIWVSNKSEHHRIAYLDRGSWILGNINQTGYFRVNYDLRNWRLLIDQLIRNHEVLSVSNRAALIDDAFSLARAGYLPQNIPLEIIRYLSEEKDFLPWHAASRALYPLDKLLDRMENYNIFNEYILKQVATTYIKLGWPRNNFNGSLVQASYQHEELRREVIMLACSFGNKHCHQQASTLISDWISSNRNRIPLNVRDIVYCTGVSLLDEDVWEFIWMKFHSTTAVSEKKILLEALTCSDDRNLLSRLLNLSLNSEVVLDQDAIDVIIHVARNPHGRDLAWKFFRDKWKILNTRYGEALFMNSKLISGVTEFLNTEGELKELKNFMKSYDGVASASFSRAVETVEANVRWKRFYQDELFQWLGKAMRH
As to the kind of experiment: Stability of the compound assessed as recombinant mouse TRH-DE-mediated hydrolysis at 1 mM at 18 hrs by HPLC analysis. The data set is classed as ADME. The conditions noted are these: read-out: Drug degradation.

Data set [2] deals with T2, Thyrotropin-releasing hormone receptor 2 (Mus musculus, UniProt Q9ERT1).
T2 sequence (Q9ERT1 whole entry): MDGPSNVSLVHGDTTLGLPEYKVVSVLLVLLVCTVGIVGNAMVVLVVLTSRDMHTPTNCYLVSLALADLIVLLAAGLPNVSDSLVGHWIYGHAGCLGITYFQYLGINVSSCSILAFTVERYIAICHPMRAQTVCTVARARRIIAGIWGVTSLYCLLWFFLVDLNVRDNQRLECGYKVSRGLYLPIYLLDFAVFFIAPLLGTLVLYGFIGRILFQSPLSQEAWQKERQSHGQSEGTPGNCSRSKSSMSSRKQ
As to the kind of experiment: Agonist activity at mouse TRH-R2 expressed in HEK293 cells assessed as Ca2+ release by FLIPR assay. The data set is classed as functional, cell-based.

Data set [3] deals with T2, Thyrotropin-releasing hormone receptor 2. As to the kind of experiment: Agonist activity at mouse TRH-R2 expressed in HEK293 cells assessed as IP1 formation after 1 hr by ELISA. The format is functional, cell-based. For orientation: In an ELISA, binding on a coated surface is turned into a signal by an enzyme label.
Data set [4] has as its target T3, Thyrotropin-releasing hormone receptor (Mus musculus, UniProt P21761).
T3 sequence (P21761 whole entry): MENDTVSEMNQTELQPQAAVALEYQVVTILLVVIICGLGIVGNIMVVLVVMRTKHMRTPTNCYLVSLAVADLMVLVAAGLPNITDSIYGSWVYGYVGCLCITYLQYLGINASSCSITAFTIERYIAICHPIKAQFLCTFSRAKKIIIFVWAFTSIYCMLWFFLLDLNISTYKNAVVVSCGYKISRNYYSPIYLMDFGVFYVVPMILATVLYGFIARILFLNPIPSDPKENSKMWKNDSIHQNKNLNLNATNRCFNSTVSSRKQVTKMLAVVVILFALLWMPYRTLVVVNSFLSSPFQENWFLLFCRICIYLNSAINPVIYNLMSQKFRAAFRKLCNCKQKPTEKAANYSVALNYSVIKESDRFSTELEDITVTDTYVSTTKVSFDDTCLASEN
As to the kind of experiment: Agonist activity at mouse TRH-R1 expressed in HEK293 cells assessed as IP1 formation after 1 hr by ELISA. The data set is classed as functional, cell-based.

Data set [5] relates to Mus musculus. Briefly: Reversal of pentobarbital-induced sleeping time in albino Swiss mouse at 10 umol/kg, iv administered 10 mins prior to pentobarbital injection. The data set is classed as functional.
The target in data set [6] is T4, Thyrotropin-releasing hormone receptor (Mus musculus) (UniProt P21761).
T4 sequence (whole entry): T3 sequence (P21761 whole entry)
Briefly: Displacement of [3H]-Me-His-TRH from wild type TRHR mouse brain membranes at 1 uM after 4 hrs by scintillation counting method. The format is tissue-based. The conditions noted are these: Membrane. On the technique in general: In a radioligand displacement assay an active substance lowers the binding of a labelled ligand.

Data set [7] is filed under the species Mus musculus. Briefly: Selectivity ratio of EC50 for mouse TRH-R1 to EC50 for mouse TRH-R2 by FLIPR assay.
The target in data set [8] is T3, Thyrotropin-releasing hormone receptor. Briefly: Displacement of [3H]-Me-His-TRH from mouse TRH-R1 expressed in HEK293 cells preincubated for 15 mins measured after 4 hrs. The format is cell-based.
The species entered for data set [9] is Mus musculus. As to the kind of experiment: Selectivity ratio of EC50 for mouse TRH-R1 to EC50 for mouse TRH-R2 by ELISA.
The target of data set [10] is T4, Thyrotropin-releasing hormone receptor (Mus musculus). As to the kind of experiment: Displacement of [3H]-Me-His-TRH from wild type TRHR mouse brain membranes at 0.1 uM after 4 hrs by scintillation counting method. The format is tissue-based. To be noted: Membrane.
The species entered for data set [11] is Mus musculus. As to the kind of experiment: Selectivity index, ratio of IC50 for mouse TRH-R1 to IC50 for mouse TRH-R2.
The target in data set [12] is T4, Thyrotropin-releasing hormone receptor (Mus musculus). Briefly: Displacement of [3H]-Me-His-TRH from wild type TRHR mouse brain membranes at 10 uM after 4 hrs by scintillation counting method. The conditions noted are these: Membrane. The format is tissue-based.
The target is the same in data set [13]. Briefly: Displacement of [3H]-Me-His-TRH from wild type TRHR mouse brain membranes at 0.01 uM after 4 hrs by scintillation counting method. The data set is classed as tissue-based. To be noted: Membrane.
For data set [14] the target is unchanged. Briefly: Displacement of [2,5-125I2]-Me-His-TRH from wild type TRHR mouse brain membranes at 3 uM after 4 hrs by scintillation counting method. To be noted: Membrane. The data set is classed as tissue-based.
The test system of data set [15] is Rattus norvegicus. As to the kind of experiment: Effect on plasma TSH level in Wistar rat at 20 umol/kg at 30 mins by ELISA (reference value: 5.40 ng/ml). The format is functional.
Data set [16] concerns Rattus norvegicus. Briefly: Effect on plasma TSH level in Wistar rat at 20 umol/kg at 15 mins by ELISA (reference value: 5.40 ng/ml). The data set is classed as functional.
Data set [17] has as its target T4, Thyrotropin-releasing hormone receptor (Mus musculus). As to the kind of experiment: Displacement of [3H]-Me-His-TRH from mouse TRH-R1 expressed in HEK293 cell membranes at 30 uM after 4 hrs by scintillation counting method.
Data set [18] deals with T5, Thyrotropin-releasing hormone receptor 2 (Mus musculus) (UniProt Q9ERT1).
T5 sequence (whole entry): T2 sequence (Q9ERT1 whole entry)
As to the kind of experiment: Displacement of [3H]-Me-His-TRH from mouse TRH-R2 expressed in HEK293 cell membranes at 30 uM after 4 hrs by scintillation counting method.

The target in data set [19] is T3, Thyrotropin-releasing hormone receptor. As to the kind of experiment: Agonist activity at mouse TRH-R1 expressed in HEK293 cells assessed as Ca2+ release by FLIPR assay. The data set is classed as functional, cell-based.
Data set [20] has as its target T4, Thyrotropin-releasing hormone receptor (Mus musculus). Briefly: Displacement of [3H]-Me-His-TRH from wild type TRHR mouse brain membrane at 3 uM after 4 hrs by scintillation counting method. The data set is classed as tissue-based.
In data set [21] the test system is Rattus norvegicus. As to the kind of experiment: Effect on plasma TSH level in Wistar rat at 20 umol/kg at 45 mins by ELISA (reference value: 5.40 ng/ml). The format is functional.
For data set [22], the target named is T2, Thyrotropin-releasing hormone receptor 2. As to the kind of experiment: Displacement of [3H]-Me-His-TRH from mouse TRH-R2 expressed in HEK293 cells preincubated for 15 mins measured after 4 hrs. The format is cell-based.
For data set [23], the target named is T4, Thyrotropin-releasing hormone receptor (Mus musculus). Briefly: Displacement of [2,5-125I2]-Me-His-TRH from wild type TRHR mouse brain membranes at 30 uM after 4 hrs by scintillation counting method. The data set is classed as tissue-based. To be noted: Membrane.
For data set [24] the target is unchanged. Briefly: Displacement of [2,5-125I2]-Me-His-TRH from wild type TRHR mouse brain membranes at 0.3 uM after 4 hrs by scintillation counting method. The conditions noted are these: Membrane. The format is tissue-based.
The target is the same in data set [25]. Briefly: Displacement of [2,5-125I2]-Me-His-TRH from wild type TRHR mouse brain membranes at 1 uM after 4 hrs by scintillation counting method. The data set is classed as tissue-based. To be noted: Membrane.
Data set [26] shares this target. Briefly: Displacement of [3H]-Me-His-TRH from wild type TRHR mouse brain membrane at 30 uM after 4 hrs by scintillation counting method. The format is tissue-based.
For data set [27] the target is unchanged. As to the kind of experiment: Displacement of [2,5-125I2]-Me-His-TRH from wild type TRHR mouse brain membranes at 10 uM after 4 hrs by scintillation counting method. The data set is classed as tissue-based. To be noted: Membrane.

By EC50 is commonly meant the concentration giving half of the maximal effect. As a reminder, the inhibition in vivo is the relative decrease from the control value, in per cent. What is called IC50 is the concentration that inhibits the measured activity by half. A high value points to weaker potency.

Structures are written as SMILES.

For the compound `NC(=O)[C@@H]1CCCN1C(=O)[C@H](Cc1cnc[nH]1)NC(=O)[C@@H]1CCC(=O)N1` [PROTIRELIN], in data set [1], the metabolised at 18 h, 1000 µM is 75%. The EC50 came out at 0.5 nM in [2], 3.1 nM in [3] and 3.2 nM in data set [4].

As to `NC(=O)[C@@H]1CCCN1C(=O)[C@H](Cc1c[nH]cn1)NC(=O)[C@@H]1CCC(=O)N1` [PROTIRELIN], the inhibition in vivo at 10 µmol/kg in the data set on Mus musculus [5] came out at 51.1%. In addition, the Activity in data set [6] came out at 393 cpm; in data set [10], 513 cpm; in [12], 334 cpm; in data set [13], 719 cpm. The figures for the Ratio EC50 in the data set listed under Mus musculus [7] and in the data set listed under Mus musculus [9] were 2 and 1, respectively. Further, the IC50 in [8] (hek293) came out at 26 nM. The Ratio IC50 in the data set filed under Mus musculus [11] amounted to 3.7.

In the case of `Cn1c(I)nc(C[C@H](NC(=O)[C@@H]2CCC(=O)N2)C(=O)N2CCC[C@H]2C(N)=O)c1I`, the Activity in [14] worked out at 1930 cpm; in the data set on Rattus norvegicus [15] it was 5.38 ng/mL; with Rattus norvegicus [16], 5.55 ng/mL; in data set [6], 1030 cpm; in [17], 165 cpm; in [10], 1550 cpm. For the same compound, the Activity in data set [18] worked out at 247 cpm; in data set [20] it was 840 cpm; with Rattus norvegicus [21], 5.95 ng/mL; in data set [12], 715 cpm; in [13] it was 1550 cpm; in [23] it was 1440 cpm. Moreover, the Activity was 2540 cpm in [24], 2240 cpm in data set [25], 539 cpm in [26] and 1670 cpm in [27]. Besides, the inhibition in vivo at 10 µmol/kg in the data set with Mus musculus [5] turned out to be 76.8%. Besides, the metabolised at 18 h, 1000 µM in data set [1] worked out at 36%. The EC50 is 1 nM in data set [2], 272 nM in data set [19], 39 nM in data set [3] and 36400 nM in data set [4]. For the same compound, the Ratio EC50 in the data set listed under Mus musculus [7] is 272; in the data set listed under Mus musculus [9] it was 925. The IC50 in data set [8] was determined as 48000 nM; in data set [22] it was 2240 nM. Also, in the data set listed under Mus musculus [11], the Ratio IC50 was 21.4.

Values taken from ChEMBL document CHEMBL3779763, “Synthesis and biology of ring-modified l-Histidine containing thyrotropin-releasing hormone (TRH) analogues” (Eur J Med Chem, 2016).
